Measured values taken from the supplement of paper PMC10307832.

Assays:
[1] = compound: C1=CC2=C(C=C(C(=C2N=C1)O)N=NC3=CC4=C(C=C3)C=C(C=C4)S(=O)(=O)O)S(=O)(=O)O + CC(=O)Nc1cccc(-n2c(=O)n(C3CC3)c(=O)c3c(Nc4ccc(I)cc4F)n(C)c(=O)c(C)c32)c1 [Trametinib] (partner 0.02 µM); assay: relative viability (nuclei count vs DMSO), 5 days (fraction); higher = more cells survive
Procedure, shortened: (§1)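 Relative viability was taken as the ratio of nuclei in treated wells to nuclei in vehicle wells. Lung cancer cell lines in 1536-well plates received compounds by pin tool one day after seeding, either one drug alone or a fixed anchor-drug dose plus five library-drug doses (not always all listed) in √10 steps. Nuclei were counted on 4× images after 5 days of treatment, and values are medians of duplicate plates.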

[2] = compound: C1=CC2=C(C=C(C(=C2N=C1)O)N=NC3=CC4=C(C=C3)C=C(C=C4)S(=O)(=O)O)S(=O)(=O)O + NC(=O)Nc1cc(-c2cccc(F)c2)sc1C(=O)N[C@H]1CCCNC1 [AZD7762] (partner 0.2 µM); assay: as above
Procedure, shortened: as §1

Cell Line	relative viability ([1]; first compound 0.08 µM)	relative viability ([1]; first compound 0.253 µM)	relative viability ([1]; first compound 0.8 µM)	relative viability ([1]; first compound 2.53 µM)	relative viability ([1]; first compound 8 µM)	relative viability ([2]; first compound 0.08 µM)	relative viability ([2]; first compound 0.253 µM)	relative viability ([2]; first compound 0.8 µM)	relative viability ([2]; first compound 2.53 µM)	relative viability ([2]; first compound 8 µM)
HOP-62	0.428	0.392	0.452	0.37	0.359	0.715	0.34	0.607	0.731	0.57
LC-2-ad	0.932	0.851	0.941	0.892	0.98	0.894	0.802	0.829	0.847	0.796
LCLC-97TM1	0.197	0.183	0.191	0.182	0.15	0.354	0.22	0.292	0.214	0.314
LCLC-103H	0.661	0.706	0.658	0.667	0.675	0.85	0.801	0.758	0.774	0.891
LK-2	0.795	0.602	0.607	0.776	0.552	0.549	0.345	0.369	0.452	0.285
LOU-NH91	0.841	0.77	0.759	0.733	0.797	0.779	0.75	0.737	0.794	0.676
LU99A	0.582	0.502	0.505	0.548	0.646	0.433	0.376	0.421	0.35	0.37
LXF-289	0.718	0.682	0.638	0.679	0.62	1.23	1.06	1.07	1.11	1.15
NCI-H23	0.39	0.319	0.392	0.443	0.346	0.186	0.199	0.317	0.177	0.312
NCI-H322M	0.535	0.544	0.566	0.504	0.528	0.576	0.625	0.522	0.598	0.71
NCI-H358	0.158	0.128	0.142	0.136	0.144	0.375	0.667	0.426	0.544	0.518
NCI-H441	0.558	0.464	0.435	0.341	0.476	1.18	1.08	0.946	1.13	1.13
NCI-H460	0.187	0.0935	0.138	0.141	0.169	0.612	0.629	0.605	0.637	0.53
NCI-H520	0.784	0.6	0.768	0.625	0.807					
NCI-H522	0.494	0.676	0.748	0.791	0.894	0.783	0.932	0.971	0.787	0.714
NCI-H596	0.939	0.751	0.77	0.795	0.681	1.25	1.12	1.13	1.04	1.17
